Measured values: the RepoRT retention time repository (doi:10.1021/acs.analchem.9b05135)

Assay: RP, Waters ACQUITY UPLC BEH C18, 100 × 1 mm, 1.7 µm, -1 °C, 0.15 mL/min, estimated dead time 0.33 min; A: water + 0.1% formic acid; B: acetonitrile + 0.1% formic acid; gradient (min/%B) 0/5 8/25 14/70 20/95 23/95
Details: stereoisomer not certain

LC retention time [min] | Compound
0.6 | C[N+](C)(C)CCO
0.6 | NC(COP(=O)(O)O)C(=O)O (centres undefined)
0.6 | CSCCC(NC(C)=O)C(=O)O (centres undefined)
4.3 | CC(C(=O)O)C(O)(CC(=O)O)C(=O)O (centres undefined)
0.7 | CC(C)C(N)C(=O)O (centres undefined)
0.7 | CC(N)C(=O)O (centres undefined)
0.7 | CC(C)CC(=O)OC(CC(=O)[O-])C[N+](C)(C)C (centres undefined)
0.7 | CC(C)CC(N)C(=O)O (centres undefined)
0.6 | C[S+](CCC(N)C(=O)O)CC1OC(n2cnc3c(N)ncnc32)C(O)C1O (centres undefined)
0.6 | CCC(=O)OC(CC(=O)[O-])C[N+](C)(C)C (centres undefined)
0.7 | CC(=O)OC(CC(=O)[O-])C[N+](C)(C)C (centres undefined)
0.7 | C[N+](C)(C)CC(O)CC(=O)[O-] (centres undefined)
0.6 | CC(=O)NC(CCC(=O)O)C(=O)O (centres undefined)
0.9 | NC(CCO)C(=O)O (centres undefined)
0.9 | Nc1ccccc1C(=O)CC(N)C(=O)O (centres undefined)
0.7 | CC(C)(CO)C(O)C(=O)NCCC(=O)O (centres undefined)
0.6 | CS(=O)CCC(N)C(=O)O (centres undefined)

LC retention time [min] | Compound
0.8 | NC(=O)CCC(N)C(=O)O (centres undefined)
1.2 | NC(Cc1c[nH]c2ccccc12)C(=O)O (centres undefined)
0.7 | CSCC1OC(n2cnc3c(N)ncnc32)C(O)C1O (centres undefined)
1.2 | Cc1cn(C2CC(O)C(COP(=O)(O)O)O2)c(=O)[nH]c1=O (centres undefined)
4 | Nc1ccnc(=O)[nH]1
3 | NC(CCC(=O)NC(CS)C(=O)NCC(=O)O)C(=O)O (centres undefined)
0.7 | Cc1c[nH]c(=O)[nH]c1=O
0.7 | Cc1cn(C2CC(O)C(CO)O2)c(=O)[nH]c1=O (centres undefined)
0.6 | NC(=NCCCC(N)C(=O)O)NC(CC(=O)O)C(=O)O (centres undefined)
0.6 | CC(=O)NC(CCC(N)=O)C(=O)O (centres undefined)
0.7 | CNCC(=O)O
0.6 | CCCC(=O)OC(CC(=O)[O-])C[N+](C)(C)C (centres undefined)
0.5 | NC(=O)NCCCC(N)C(=O)O (centres undefined)
0.8 | NC(=O)c1cccnc1
0.7 | C[N+](C)(C)CCOP(=O)(O)O
0.7 | CC(=O)NC1C(OP(=O)(O)OP(=O)(O)OCC2OC(n3ccc(=O)[nH]c3=O)C(O)C2O)OC(CO)C(O)C1O (centres undefined)
0.7 | Cc1ncccc1C(N)=O
